Earlier results, collected in patent US4658014A, “Synthetic peptides with calcitonin-like activity” (priority 1985, dated 1987).

Details: versus natural eel calcitonin

For [Asu^1,7 ] eel calcitonin, which “activity relative to the naturally occuring hormone with the disulfide bond” value is on record?
Its value is “comparable activity”.
